# Measured values from patent publication EP0000636A1, “Penem compounds, processes for their preparation, their use in pharmaceutical compositions and azetidinones used in their preparation” (GLAXO GROUP LIMITED, priority 1977, dated 1979).
# Read-outs that look alike come from different tables or passages of the source.
# Assays:
# E. cloacae 1321E = experiment: Determination of Minimum Inhibitory Concentrations (MIC), agar dilution; type: cell-based; settings: Enterobacter cloacae
# Excerpt: (§1) Biological testing of a number of compounds of the invention has provided the results shown below;-the test compounds are identified by their Example Numbers: 1. Determination of Minimum Inhibitory Concentrations (MIC)
# (§2) Serial two-fold dilutions of freshly prepared test solutions were made into Oxoid No. 1 Nutrient agar with or without added enrichment and poured into petri diches. Plates were inoculated with a multipoint inoculator with inoculum containing approximately 10^5 colony forming units of the organisms shown in the following Tables, all of which organisms are clinical isolates. The MIC, quoted in the Tables as µg/ml, was read after 18 hours incubation at 37°C as the lowest concentration which inhibited growth.. N.T. means not tested.
# E. coli 851E = experiment: as above; type: cell-based; settings: Escherichia coli
# Excerpt: as §1, §2
# E. cloacae 1051E = experiment: as above; type: cell-based; settings: Enterobacter cloacae
# Excerpt: as §1, §2
# S. marcescens 1324E = experiment: as above; type: cell-based; settings: Serratia marcescens
# Excerpt: as §1, §2
# H. influenzae 1184E = experiment: as above; type: cell-based; settings: Haemophilus influenzae
# Excerpt: as §1, §2
# Micrococcus Sp 1810E = experiment: as above; type: cell-based; settings: SP1810E
# Excerpt: as §1, §2
# Staph.aureus 853E = experiment: as above; type: cell-based; settings: Staphylococcus aureus
# Excerpt: as §1, §2
# K. aerogenes 1522E = experiment: as above; type: cell-based; settings: Klebsiella aerogenes
# Excerpt: as §1, §2
# Toxicity (LD50) in mice = settings: mouse, in vivo, ip; administered intraperitoneally to mice
# [1] = E. cloacae 1321E, clinical isolate, Oxoid No. 1 Nutrient agar, approximately 10^5 colony forming units, 18 hours at 37°C, read-out: MIC
# [2] = E. coli 851E, clinical isolate, Oxoid No. 1 Nutrient agar, approximately 10^5 colony forming units, 18 hours at 37°C, read-out: MIC
# [3] = E. cloacae 1051E, clinical isolate, Oxoid No. 1 Nutrient agar, approximately 10^5 colony forming units, 18 hours at 37°C, read-out: MIC
# [4] = S. marcescens 1324E, clinical isolate, Oxoid No. 1 Nutrient agar, approximately 10^5 colony forming units, 18 hours at 37°C, read-out: MIC
# [5] = H. influenzae 1184E, clinical isolate, Oxoid No. 1 Nutrient agar, approximately 10^5 colony forming units, 18 hours at 37°C, read-out: MIC
# [6] = Micrococcus Sp 1810E, clinical isolate, Oxoid No. 1 Nutrient agar, approximately 10^5 colony forming units, 18 hours at 37°C, read-out: MIC
# [7] = Staph.aureus 853E, clinical isolate, Oxoid No. 1 Nutrient agar, approximately 10^5 colony forming units, 18 hours at 37°C, read-out: MIC
# [8] = K. aerogenes 1522E, clinical isolate, Oxoid No. 1 Nutrient agar, approximately 10^5 colony forming units, 18 hours at 37°C, read-out: MIC
SMILES,MIC (E. cloacae 1321E; [1]) [µg/mL],MIC (E. coli 851E; [2]) [µg/mL],MIC (E. cloacae 1051E; [3]) [µg/mL],MIC (S. marcescens 1324E; [4]) [µg/mL],MIC (H. influenzae 1184E; [5]) [µg/mL],MIC (Micrococcus Sp 1810E; [6]) [µg/mL],MIC (Staph.aureus 853E; [7]) [µg/mL],MIC (K. aerogenes 1522E; [8]) [µg/mL],LD50 (Toxicity (LD50) in mice) [mg/kg],"MIC (E. cloacae 1321E; 1321E, 18 h) [µg/mL]","MIC (E. coli 851E; 851E, 18 h) [µg/mL]","MIC (E. cloacae 1051E; 1051E, 18 h) [µg/mL]","MIC (S. marcescens 1324E; 1324E, 18 h) [µg/mL]","MIC (H. influenzae 1184E; 1184E, 18 h) [µg/mL]","MIC (Micrococcus Sp 1810E; Micrococcus, 18 h) [µg/mL]","MIC (Staph.aureus 853E; 853E, 18 h) [µg/mL]","MIC (K. aerogenes 1522E; 1522E, 18 h) [µg/mL]"
"CC(=O)OCCC1=C(C(=O)O)N2C(=O)CC2S1 (racemic) [Example 13, Potassium (5RS)-2-(2-acetoxethyl)pen-2-em-3-carbolate]",2,4,16,62,,0.2,0.5,8,,,,,,,,,
"CCC1=C(C(=O)[O-])N2C(=O)CC2[S+]1[O-].[K+] (racemic) [Example 36, Potassium (5RS)-2-ethylpen-2-em-3-carboxylate-1-oxide]",,,,,,,,,> 500,8,8,8,8,2,0.1,0.5,8
"O=C([O-])C1=C(CCOC2CCCCO2)SC2CC(=O)N12.[K+] (racemic) [Example 43, Potassium (5RS)-2-[2-(tetrahydropyran-2-yloxy)ethyl]-pen-2-em-3-carboxylate]",,,,,,,,,> 500,,,,,,,,
"COCCC1=C(C(=O)[O-])N2C(=O)CC2S1.[Na+] (racemic) [Example 45, Sodium (5RS)-2-(2-methoxyethyl)pen-2-em-3-carboxylate]",,,,,,,,,,2,2,8,8,4,< 0.1,0.5,4
"O=C(CCl)OCCC1=C(C(=O)[O-])N2C(=O)CC2S1.[K+] (racemic) [Example 57, Potassium (5RS)-2-[2-(2-chloroacetyl)oxyethyl]pen-2-em-3-carboxylate]",,,,,,,,,,8,8,16,8,4,0.2,0.5,8

# Continued, in another order:
MIC (E. cloacae 1321E; [1]) [µg/mL],MIC (E. coli 851E; [2]) [µg/mL],MIC (E. cloacae 1051E; [3]) [µg/mL],MIC (S. marcescens 1324E; [4]) [µg/mL],MIC (H. influenzae 1184E; [5]) [µg/mL],MIC (Micrococcus Sp 1810E; [6]) [µg/mL],MIC (Staph.aureus 853E; [7]) [µg/mL],MIC (K. aerogenes 1522E; [8]) [µg/mL],SMILES,LD50 (Toxicity (LD50) in mice) [mg/kg],"MIC (E. cloacae 1321E; 1321E, 18 h) [µg/mL]","MIC (E. coli 851E; 851E, 18 h) [µg/mL]","MIC (E. cloacae 1051E; 1051E, 18 h) [µg/mL]","MIC (S. marcescens 1324E; 1324E, 18 h) [µg/mL]","MIC (H. influenzae 1184E; 1184E, 18 h) [µg/mL]","MIC (Micrococcus Sp 1810E; Micrococcus, 18 h) [µg/mL]","MIC (Staph.aureus 853E; 853E, 18 h) [µg/mL]","MIC (K. aerogenes 1522E; 1522E, 18 h) [µg/mL]"
4,4,8,8,8,< 0.1,0.5,8,"O=C(O)C1=C(CCO)SC2CC(=O)N12 (racemic) [Example 11, Potassium (5RS)-2-(2-hdroxethyl)pen-2-em-3-carboxylate]",,,,,,,,,
2,2,8,4,2,< 0.1,< 0.1,4,"NC(=O)OCCC1=C(C(=O)O)N2C(=O)CC2S1 (racemic) [Example 18, (5RS)-2-(2-Carbamoyloxethyl)pen-2-em-3-carboxlic acid]",,,,,,,,,
4,4,31,4,4,< 0.1,0.2,4,CNC(=O)OCCC1=C(C(=O)O)N2C(=O)CC2S1 (racemic) [Example 21],,,,,,,,,
31,31,125,31,4,,0.5,31,"CCCCC1=C(C(=O)O)N2C(=O)CC2S1 (racemic) [Example 26, (5RS)2-n-Butylpen-2-em-3-carboxylic acid]",,,,,,,,,
0.5,0.5,4,1,1,< 0.1,< 0.1,0.5,"CCCC1=C(C(=O)O)N2C(=O)CC2S1 (racemic) [Example 28, (5RS)-2-ProD^ylpen-2-em-3-carboxylic acid]",,,,,,,,,
2,4,8,4,4,0.2,0.5,4,"COCC1=C(C(=O)O)N2C(=O)CC2S1 (racemic) [Example 52, Potassium (5RS)-2-methoxymethylen-2-em-3-carboxylate]",,,,,,,,,
8,8,16,8,4,0.2,1,16,"CC1=C(C(=O)O)N2C(=O)CC2S1 (single isomer, unassigned) [Example 6]",,,,,,,,,
